Measured values published in patent publication US12624018B1, “Inhibitors of RIPK2 and medical uses thereof” (Odyssey Therapeutics, Inc., priority 2022, dated 2026).

What was measured:
human NOD2 signaling = assay: Inhibition of human NOD2 signaling in HEK-Blue-hNOD2 cells (L18-MDP stimulated, SEAP reporter); type: cell-based; details: Homo sapiens, HEK-Blue hNOD2, HEK-Blue-hNOD2 cells, NOD2 ligand stimulation, SEAP reporter; read-out: hNOD2 IC50
Procedure, shortened: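 HEK-Blue-hNOD2 cells (HEK293 with NOD2 and SEAP reporter), 12500/well, treated with 10-point 3-fold compound dilutions plus L18-MDP 0.5 ng/mL final, 24 h at 37 °C. Supernatant SEAP read with QUANTI-Blue after 3 h at 620 nm; IC50 by 4-parameter fit vs DMSO±L18-MDP controls.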

[1] = tested on: TNF-alpha secretion in human whole blood; assay: Inhibition of TNF-alpha secretion in human whole blood (IFN-gamma primed, L18-MDP stimulated); type: cell-based; details: Homo sapiens, 16 h, L18-MDP 100 ng/mL, read-out: Human Whole Blood TNFα IC50

`Cc1c(Oc2ccnc3ccc(S(C)(=O)=O)cc23)ccc(CC(=O)Nc2cnn(C(C)(C)C)c2)c1F` [Compound 91, N-(1-(tert-butyl)-1H-pyrazol-4-yl)-2-(2-fluoro-3-methyl-4-((6-(methylsulfonyl)quinolin-4-yl)oxy)phenyl)acetamide] showed an IC50 (human NOD2 signaling) of 0.5 nM and an IC50 [1] of 6 nM.
`CNC(=O)c1ccc2nccc(Oc3cc(F)c(CC(=O)Nc4cnn(C(C)(C)C)c4)cc3C)c2c1` [Compound 360, 4-(4-(2-((1-(tert-butyl)-1H-pyrazol-4-yl)amino)-2-oxoethyl)-5-fluoro-2-methylphenoxy)-N-methylquinoline-6-carboxamide] was tested, and the IC50 (human NOD2 signaling) was 0.2 nM and the IC50 [1] was 7 nM.
`Cc1cc(CC(=O)Nc2cnn(C(C)(C)C)c2)c(F)cc1Oc1ccnc2ccc(C(N)=O)cc12` [Compound 359, 4-(4-(2-((1-(tert-butyl)-1H-pyrazol-4-yl)amino)-2-oxoethyl)-5-fluoro-2-methyl-phenoxy) quinoline-6-carboxamide] showed an IC50 (human NOD2 signaling) of 0.5 nM and an IC50 [1] of 4 nM.
Work on `CCS(=O)(=O)c1ccc2nccc(Oc3ccc(CC(=O)Nc4cnn(C(C)(C)C)c4)cc3C)c2c1` [Compound 99, N-(1-(tert-butyl)-1H-pyrazol-4-yl)-2-(4-((6-(ethylsulfonyl)quinolin-4-yl)oxy)-3-methylphenyl)acetamide] yielded an IC50 (human NOD2 signaling) of 0.3 nM and an IC50 [1] of 8 nM.
Work on `Cc1cc(CC(=O)Nc2cnn(C(C)(C)C)c2)ccc1Oc1ccnc2ccc(S(C)(=O)=O)cc12` [Compound 86, N-(1-(tert-butyl)-1H-pyrazol-4-yl)-2-(3-methyl-4-((6-(methylsulfonyl)quinolin-4-yl)oxy)phenyl)acetamide] yielded an IC50 (human NOD2 signaling) of 0.7 nM and an IC50 [1] of 9 nM.
`Cc1cc(CC(=O)Nc2cnn(C(C)(C)C)c2)ccc1Oc1ccnc2ccc(OC3CCNCC3)cc12` [Compound 83, N-(1-(tert-butyl)-1H-pyrazol-4-yl)-2-(3-methyl-4-((6-(piperidin-4-yloxy)quinolin-4-yl)oxy)phenyl) acetamide] showed an IC50 (human NOD2 signaling) of 5.9 nM and an IC50 [1] of 3 nM.
`CC(C)(C)n1cc(NC(=O)Cc2ccc(Oc3ccnc4ccc(S(C)(=O)=O)cc34)cc2F)cn1` [Compound 38, N-(1-(tert-butyl)-1H-pyrazol-4-yl)-2-(2-fluoro-4-((6-(methylsulfonyl)quinolin-4-yl)oxy)phenyl)acetamide] showed an IC50 (human NOD2 signaling) of 9 nM and an IC50 [1] of 5 nM.
With `Cc1cc(CC(=O)Nc2cnn(C(C)(C)C)c2)c(F)cc1Oc1ccnc2ccc(S(C)(=O)=O)cc12` [Compound 113, N-(1-(tert-butyl)-1H-pyrazol-4-yl)-2-(2-fluoro-5-methyl-4-((6-(methylsulfonyl)quinolin-4-yl)oxy)phenyl)acetamide] the IC50 (human NOD2 signaling) was 2.2 nM and the IC50 [1] was 14 nM.
For `Cc1cc(CC(=O)Nc2cnn(C(C)(C)C)c2)cc(C)c1Oc1ccnc2cc(F)c(C(N)=O)cc12` [Compound 581, 4-(4-(2-((1-(tert-butyl)-1H-pyrazol-4-yl)amino)-2-oxoethyl)-2,6-dimethylphenoxy)-7-fluoroquinoline-6-carboxamide], the IC50 (human NOD2 signaling) was 1.2 nM.
